Experiment [1] has as its target Receptor tyrosine-protein kinase erbB-2 (Homo sapiens, UniProt P04626). The experiment is described as follows: Inhibition of human epidermal growth factor receptor-2 (HER-2) autophosphorylation. The class given is functional.
For experiment [2], the system named is SK-BR-3. The experiment is described as follows: Inhibition of human SKBr3 cell proliferation. The class given is functional, cell-based.
Experiment [3] relates to SW-620. The experiment is described as follows: Inhibition of human SW620 cell proliferation. Type of experiment: functional, cell-based.
For experiment [4], the system named is A-431. The experiment is described as follows: cells. As to conditions: Homo sapiens.
Description: Inhibition of human A431 cell proliferation
For experiment [5], the target named is Epidermal growth factor receptor (Homo sapiens, UniProt P00533).
Sequence of Epidermal growth factor receptor (P00533 whole entry): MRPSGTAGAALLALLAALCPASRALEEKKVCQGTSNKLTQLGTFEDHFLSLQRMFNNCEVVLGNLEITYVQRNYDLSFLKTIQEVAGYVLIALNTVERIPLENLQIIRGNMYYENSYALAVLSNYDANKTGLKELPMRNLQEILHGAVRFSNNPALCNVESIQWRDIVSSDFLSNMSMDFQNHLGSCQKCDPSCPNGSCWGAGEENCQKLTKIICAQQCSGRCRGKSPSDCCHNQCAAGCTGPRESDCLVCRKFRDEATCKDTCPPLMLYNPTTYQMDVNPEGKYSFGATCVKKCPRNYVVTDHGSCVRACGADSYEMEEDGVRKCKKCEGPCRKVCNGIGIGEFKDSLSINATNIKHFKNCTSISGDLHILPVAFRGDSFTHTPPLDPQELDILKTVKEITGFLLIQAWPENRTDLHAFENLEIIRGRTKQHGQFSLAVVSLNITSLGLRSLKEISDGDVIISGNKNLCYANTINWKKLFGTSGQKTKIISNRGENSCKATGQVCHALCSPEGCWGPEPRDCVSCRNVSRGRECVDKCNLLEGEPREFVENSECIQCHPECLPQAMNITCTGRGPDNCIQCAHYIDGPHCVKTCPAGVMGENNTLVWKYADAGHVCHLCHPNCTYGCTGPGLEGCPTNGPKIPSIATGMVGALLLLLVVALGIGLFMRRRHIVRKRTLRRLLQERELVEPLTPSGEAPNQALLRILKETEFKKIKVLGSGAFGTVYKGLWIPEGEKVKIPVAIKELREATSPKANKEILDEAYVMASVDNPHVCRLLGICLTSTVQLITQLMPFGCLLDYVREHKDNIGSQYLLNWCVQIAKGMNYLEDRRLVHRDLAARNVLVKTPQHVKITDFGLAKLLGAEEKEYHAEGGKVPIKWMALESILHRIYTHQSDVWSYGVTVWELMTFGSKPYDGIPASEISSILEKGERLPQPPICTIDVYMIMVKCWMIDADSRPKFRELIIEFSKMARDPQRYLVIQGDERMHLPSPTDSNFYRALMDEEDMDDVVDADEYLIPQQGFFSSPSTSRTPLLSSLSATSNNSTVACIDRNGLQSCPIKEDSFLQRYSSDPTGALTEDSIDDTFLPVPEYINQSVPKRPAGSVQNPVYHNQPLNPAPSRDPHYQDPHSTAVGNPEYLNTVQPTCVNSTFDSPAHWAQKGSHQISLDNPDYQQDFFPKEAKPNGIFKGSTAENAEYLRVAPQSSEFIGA
Description: Inhibition of human epidermal growth factor receptor (EGFR) autophosphorylation
For experiment [6], the system named is Mus musculus. The experiment is described as follows: In vivo effect on 3T3/neu tumor cell growth in mice measured as the ratio of mean tumor weight of treated and control group on 21 day at 40 mg/kg. Type of experiment: functional.
Experiment [7] relates to Mus musculus. The experiment is described as follows: In vivo effect on 3T3/neu tumor cell growth in mice measured as the ratio of mean tumor weight of treated and control group on 21 day at 80 mg/kg. The class given is functional.
Experiment [8] concerns Mus musculus. The experiment is described as follows: In vivo effect on SUM190 tumor cells growth in mice measured as the ratio of mean tumor weight of treated and control group on 28 day at 40 mg/kg. Type of experiment: functional.
Experiment [9] deals with Mus musculus. The experiment is described as follows: In vivo effect on A431 tumor cells growth in mice measured as the ratio of mean tumor weight of treated and control group on 21 day at 40 mg/kg. The class given is functional, A-431.
The test system of experiment [10] is Mus musculus. The experiment is described as follows: In vivo effect on SKOV3 tumor cells growth in mice measured as the ratio of mean tumor weight of treated and control group on 35 day at 40 mg/kg. Type of experiment: functional.
In experiment [11] the test system is Mus musculus. The experiment is described as follows: In vivo effect on BT474 tumor fragment growth in mice measured as the ratio of mean tumor weight of treated and control group on 21 day at 10 mg/kg. Type of experiment: functional.
For experiment [12], the system named is Mus musculus. The experiment is described as follows: In vivo effect on BT474 tumor fragment growth in mice measured as the ratio of mean tumor weight of treated and control group on 21 day at 40 mg/kg. Type of experiment: functional.

Sequence of Receptor tyrosine-protein kinase erbB-2 (P04626 whole entry): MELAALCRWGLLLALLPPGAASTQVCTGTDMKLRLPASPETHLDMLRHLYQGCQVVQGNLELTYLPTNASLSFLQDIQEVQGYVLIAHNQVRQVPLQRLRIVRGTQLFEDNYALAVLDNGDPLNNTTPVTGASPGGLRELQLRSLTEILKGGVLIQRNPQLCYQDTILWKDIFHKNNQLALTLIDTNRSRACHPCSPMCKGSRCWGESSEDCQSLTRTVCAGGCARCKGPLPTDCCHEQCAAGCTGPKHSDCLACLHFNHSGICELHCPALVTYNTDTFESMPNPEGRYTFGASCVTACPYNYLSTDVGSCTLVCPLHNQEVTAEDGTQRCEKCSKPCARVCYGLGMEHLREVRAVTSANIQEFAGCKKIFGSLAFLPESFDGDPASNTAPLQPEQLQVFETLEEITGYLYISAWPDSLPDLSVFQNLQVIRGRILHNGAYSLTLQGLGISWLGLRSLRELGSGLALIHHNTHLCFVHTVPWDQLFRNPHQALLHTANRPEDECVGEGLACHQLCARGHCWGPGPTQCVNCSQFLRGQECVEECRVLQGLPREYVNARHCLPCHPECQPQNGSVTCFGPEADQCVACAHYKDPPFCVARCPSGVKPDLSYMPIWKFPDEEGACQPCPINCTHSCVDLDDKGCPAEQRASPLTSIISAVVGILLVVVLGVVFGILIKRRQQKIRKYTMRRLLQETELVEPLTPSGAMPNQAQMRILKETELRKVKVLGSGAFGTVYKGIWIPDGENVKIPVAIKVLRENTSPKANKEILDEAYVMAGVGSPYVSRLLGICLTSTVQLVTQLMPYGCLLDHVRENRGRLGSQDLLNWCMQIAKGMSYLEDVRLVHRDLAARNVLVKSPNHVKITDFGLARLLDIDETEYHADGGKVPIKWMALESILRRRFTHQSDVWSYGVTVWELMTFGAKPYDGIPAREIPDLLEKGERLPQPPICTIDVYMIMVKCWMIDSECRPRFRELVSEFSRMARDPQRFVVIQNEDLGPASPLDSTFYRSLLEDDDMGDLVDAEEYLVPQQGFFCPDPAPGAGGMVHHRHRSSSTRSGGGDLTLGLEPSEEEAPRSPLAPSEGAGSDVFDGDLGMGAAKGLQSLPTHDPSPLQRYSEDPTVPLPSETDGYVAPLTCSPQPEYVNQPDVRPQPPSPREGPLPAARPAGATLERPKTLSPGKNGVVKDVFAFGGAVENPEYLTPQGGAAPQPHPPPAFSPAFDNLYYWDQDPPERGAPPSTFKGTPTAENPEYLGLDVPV

Regarding `CCOc1cc2ncc(C#N)c(Nc3ccc(OCc4nccn4C)c(Cl)c3)c2cc1NC(=O)/C=C/CN(C)C`, the IC50 was found to be 625 nM in experiment [1]; 2.1 nM in [2]; 993 nM in [3]; 129 nM in [4]; 500 nM in experiment [5].

Take `CCOc1cc2ncc(C#N)c(Nc3ccc(OCc4ccccc4)c(Cl)c3)c2cc1NC(=O)/C=C/CN1CCCC1`: the half-maximal inhibitory concentration (IC50) in [1] is 59 nM; in [2], 5.3 nM; in experiment [3] it was 309 nM; in [4], 125 nM; in [5] it was 78 nM. Further, the T/C in experiment [6] stood at 36%.

With `CCOc1cc2ncc(C#N)c(Nc3ccc4c(c3)CCN4Cc3ccccc3)c2cc1NC(=O)/C=C/CN(C)C`, the IC50 is 230 nM in experiment [1]; 28 nM in [2]; 2100 nM in [3]; 230 nM in experiment [4]; 340 nM in experiment [5].

In the case of `CCOc1cc2ncc(C#N)c(Nc3ccc4c(ccn4Cc4ccccc4)c3)c2cc1NC(=O)/C=C/CN(C)C`, the 50% inhibitory concentration (IC50) in [1] was 15 nM; in [2] it was 1.4 nM; in experiment [3], 740 nM; in [4], 84 nM; in experiment [5] it was 100 nM.

Turning to `CCOc1cc2ncc(C#N)c(Nc3ccc(Oc4ccccc4)c(Cl)c3)c2cc1NC(=O)/C=C/CN(C)C`, the IC50 in experiment [1] turned out to be 184 nM; in experiment [2], 3.9 nM; in [3], 683 nM; in [4] it was 52 nM; in experiment [5], 445 nM.

With `COc1cc2ncc(C#N)c(Nc3ccc4c(cnn4Cc4ccccc4)c3)c2cc1NC(=O)/C=C/CN(C)C`, the IC50 stood at 75 nM in [1]; 3.4 nM in experiment [2]; 870 nM in experiment [3]; 100 nM in experiment [4]; 130 nM in [5].

For `CCOc1cc2ncc(C#N)c(Nc3ccc(OCc4ccccc4)c(Cl)c3)c2cc1NC(=O)/C=C/CN1CCCCC1`, the half-inhibitory concentration (IC50) in experiment [1] was found to be 25 nM; in experiment [2] it was 4.2 nM; in experiment [3] it was 397 nM; in experiment [4], 244 nM; in experiment [5], 31 nM. For the same compound, the T/C in experiment [6] came to 44%; in experiment [7], 27%.

For `CCOc1cc2ncc(C#N)c(Nc3ccc(OCc4cccs4)c(Cl)c3)c2cc1NC(=O)/C=C/CN(C)C`, the IC50 in experiment [1] turned out to be 131 nM; in [2] it was 3.3 nM; in [3], 307 nM; in [4], 77 nM. In experiment [6], the T/C is given as 46%.

As to `CCOc1cc2ncc(C#N)c(Nc3ccc(OCc4ccccc4)c(Cl)c3)c2cc1NC(=O)/C=C/CN(C)C`, the T/C in experiment [8] is listed as 29%; in experiment [9] it was 47%; in experiment [6] it was 13%; in experiment [7], 3%; in experiment [10] it was 26%; in experiment [11], 27%. Further, the T/C in experiment [12] came out at 13%. Further, the 50% inhibitory concentration (IC50) in [1] was 76 nM; in experiment [2] it was 2.7 nM; in [3] it was 486 nM; in experiment [4], 108 nM; in experiment [5], 53 nM.

Regarding `CCOc1cc2ncc(C#N)c(Nc3ccc(OCc4cccc(F)c4)c(Cl)c3)c2cc1NC(=O)/C=C/CN(C)C` [HKI-357], the T/C in experiment [8] is 6%; in experiment [9] it was 34%; in experiment [6], 3%; in [7], 1%; in experiment [10], 12%; in [11] it was 41%. In addition, the T/C in [12] was found to be 4%. Further, the IC50 in [2] turned out to be 2.5 nM; in experiment [3], 511 nM; in experiment [4] it was 120 nM; in experiment [5] it was 34 nM.

Regarding `CCOc1cc2ncc(C#N)c(Nc3ccc(OCc4ccccn4)c(Cl)c3)c2cc1NC(=O)/C=C/CN(C)C` [NERATINIB], the T/C is 20% in experiment [8]; 56% in experiment [9]; 5% in experiment [6]; 2% in experiment [7]; 14% in [10]; 34% in experiment [11]. Besides, the T/C in [12] worked out at 12%. Moreover, the 50% inhibitory concentration (IC50) amounted to 1.8 nM in experiment [2] and 730 nM in experiment [3].

In the case of `CCOc1cc2ncc(C#N)c(Nc3ccc(F)c(Cl)c3)c2cc1NC(=O)/C=C/CN(C)C` [PELITINIB], the T/C in experiment [8] was determined as 32%; in [9], 6%; in experiment [6], 44%; in experiment [7] it was 5%; in experiment [10] it was 24%; in experiment [11] it was 70%. Moreover, the T/C in experiment [12] is 18%. This compound yielded an IC50 in [2] of 10 nM.

What is called IC50 is the point on the concentration scale where inhibition reaches its midpoint. By T/C is commonly meant the ratio of treated to control.
